Assay [1] has as its target SHP2 (Homo sapiens (Human), UniProt Q06124). The assay can be described thus: SHP2-catalyzed hydrolysis of p-nitrophenyl phosphate (pNPP). In kind it is biochemical. The protocol:
Libraries 11a-d were screened at ˜5 μM for SHP2 inhibitors without further purification. The ability of the library components to inhibit the SHP2-catalyzed hydrolysis of p-nitrophenyl phosphate (pNPP) was evaluated at pH 7.0 and 25° C. More particularly, the phosphatase activity of SHP2 was assayed using p-nitrophenyl phosphate (pNPP) as a substrate at 25° C. in 50 mM 3,3-dimethylglutarate buffer, pH 7.0, containing 1 mM EDTA with an ionic strength of […] adjusted by NaCl. The libraries were screened in a 96-well format at 5 μM compound concentration. […] The nonenzymatic hydrolysis of pNPP was corrected by measuring the control without the addition of enzyme. The amount of product p-nitrophenol was determined from the absorbance at 405 nm detected by a Spectra MAX340 microplate spectrophotometer (Molecular Devices, Sunnyvale, Calif.) using a molar extinction coefficient of 18,000 M^−1 cm^−1. […] IC50 values for selected resynthesized and purified hits were calculated by fitting the absorbance at 405 nm versus inhibitor concentration to the following equation: AI/A0=IC50/(IC50+[I]) where AI is the absorbance at 405 nm of the sample in the presence of the inhibitor; A0 is the absorbance at 405 nm in the absence of inhibitor; and [I] is the concentration of the inhibitor.

The target in assay [2] is PTPH1 (Homo sapiens (Human), UniProt P26045). The assay is described as follows: PTP selectivity panel, pNPP. The note with it: pNPP at Km. In kind it is biochemical, mammalian.
Assay [3] concerns the target SHP1 (Homo sapiens (Human), UniProt P29350). The assay is described as follows: PTP selectivity panel, pNPP. In kind it is biochemical, mammalian.
Assay [4] has as its target VHZ (Homo sapiens (Human), UniProt Q9BVJ7). The assay can be described thus: PTP selectivity panel, pNPP. In kind it is biochemical, mammalian. The following applies: pNPP at Km.
Assay [5] deals with PTPγ (Homo sapiens (Human), UniProt P23470). The assay is described as follows: PTP selectivity panel, pNPP. In kind it is biochemical, mammalian. The following applies: pNPP at Km.
Assay [6] has as its target VHR (Homo sapiens (Human), UniProt P51452). The assay is described as follows: PTP selectivity panel, pNPP. The following applies: pNPP at Km. In kind it is biochemical, mammalian.
Assay [7] concerns the target PTPμ (Homo sapiens (Human), UniProt P28827). The assay can be described thus: PTP selectivity panel, pNPP. In kind it is biochemical, mammalian. The following applies: pNPP at Km.
Assay [8] concerns the target UBLCP1 (Homo sapiens (Human), UniProt Q8WVY7). The assay is described as follows: PTP selectivity panel, pNPP. In kind it is biochemical, mammalian. The note with it: pNPP at Km.
Assay [9] addresses Laforin (Homo sapiens (Human), UniProt O95278). The assay can be described thus: PTP selectivity panel, pNPP. In kind it is biochemical, mammalian. The following applies: pNPP at Km.
Assay [10] addresses PTPε (Homo sapiens (Human), UniProt P23469). The assay can be described thus: PTP selectivity panel, pNPP. In kind it is biochemical, mammalian. The following applies: pNPP at Km.
Assay [11] deals with mPTPA (Mycobacterium tuberculosis (strain ATCC 25618 / H37Rv), UniProt P9WIA1). The assay is described as follows: PTP selectivity panel, pNPP. In kind it is biochemical. The following applies: pNPP at Km.
In assay [12] the test system is EGF-induced Erk1/2 phosphorylation. The assay is described as follows: EGF-induced Erk1/2 phosphorylation in H1975 cells (immunoblot). In kind it is cell-based, human. The protocol: (§1) For biochemical studies, H1975 cells were serum-starved overnight followed by treatment with vehicle or compound 11a-1 for 3 hours, and then either left unstimulated or stimulated with 5 ng/ml EGF (Sigma, St. Louis, Mo.) for 60 minutes. Lysates were then resolved by SDS-PAGE and the protein phosphorylation levels were detected by immunoblot analysis. Specifically, cells were lysed in lysis buffer (1.0% Nonidet P-40, 50 mM Tris-HCl (pH 7.4), 150 mM NaCl, 5 mM EDTA, 2 mM NaVO3, 10 mM NaF) plus a protease inhibitor mixture available from Roche (Basel, Switzerland) and centrifuged at 10,000 rpm for 5 minutes at 4° C. Supernatants were collected and protein concentration was determined using the BCA protein assay (ThermoFisher Scientific, Rockford, Ill.). Equal amount of protein extracts were mixed with gel loading buffer and separated on SDS-PAGE. After electrophoresis, the proteins were transferred onto nitrocellulose membranes and nonspecific binding was blocked with 5% nonfat dry milk in Tris-buffered saline containing 0.1% Tween-20 (TBS-T). Membranes were then probed with various antibodies overnight at 4° C. on a rocker. After incubation, membranes were washed with TBS-T and incubated with appropriate horseradish peroxidase (HRP)-conjugated secondary antibodies for 1 hour at room temperature. Finally, the proteins on the membranes were detected using SuperSignal West Dura Luminol/Enhancer solution (ThermoFisher Scientific, Rockford, Ill.) and membranes were analyzed using Bio-Rad ChemiDoc XRS Imaging System.

The subject of assay [13] is Paxillin (pY118). The assay can be described thus: Paxillin (pY118) phosphorylation in H1975 cells (immunoblot). In kind it is cell-based, human. On the procedure:
as §1
In general terms: A western blot detects proteins with antibodies after separation by electrophoresis.

Assay [14] has as its system SKBR3 cells. The assay can be described thus: SKBR3 breast cancer cell growth in Matrigel. In kind it is cell-based. On the procedure:
(§2) Approximately 300,000 SKBR3 cells were seeded into 150 μl of growth factor reduced Matrigel (Corning, Corning, N.Y.) in 35 mm dishes. To 3 dishes for each condition, 2 mL of media containing either 10 μl vehicle (DMSO) or compound 11a-1 at the indicated concentration was then added. Every 24 hours, the cells were imaged with a NIKON SMZ1500 stereomicroscoppe. The cross-sectional area of individual colonies from each image were measured using Adobe Photoshop software. After 4 days, the cells were recovered from the Matrigel and lysed in PLC buffer containing protease inhibitor cocktail (Cat. No. P8340; Sigma-Aldrich, St. Louis, Mo.). Lysates were then resolved by SDS-PAGE and relative levels of the indicated proteins were detected by immunoblot analysis.

Assay [15] deals with Erk1/2 and Akt phosphorylation. The assay can be described thus: Erk1/2 and Akt phosphorylation in SKBR3 cells recovered from Matrigel (immunoblot). In kind it is cell-based. The note with it: 1 μM to 10 μM, 4 days in Matrigel. On the procedure:
as §2

Molecules are shown by their SMILES. “Also recorded” adds a separate entry of the source.

SHP1, sequence (P29350 whole entry): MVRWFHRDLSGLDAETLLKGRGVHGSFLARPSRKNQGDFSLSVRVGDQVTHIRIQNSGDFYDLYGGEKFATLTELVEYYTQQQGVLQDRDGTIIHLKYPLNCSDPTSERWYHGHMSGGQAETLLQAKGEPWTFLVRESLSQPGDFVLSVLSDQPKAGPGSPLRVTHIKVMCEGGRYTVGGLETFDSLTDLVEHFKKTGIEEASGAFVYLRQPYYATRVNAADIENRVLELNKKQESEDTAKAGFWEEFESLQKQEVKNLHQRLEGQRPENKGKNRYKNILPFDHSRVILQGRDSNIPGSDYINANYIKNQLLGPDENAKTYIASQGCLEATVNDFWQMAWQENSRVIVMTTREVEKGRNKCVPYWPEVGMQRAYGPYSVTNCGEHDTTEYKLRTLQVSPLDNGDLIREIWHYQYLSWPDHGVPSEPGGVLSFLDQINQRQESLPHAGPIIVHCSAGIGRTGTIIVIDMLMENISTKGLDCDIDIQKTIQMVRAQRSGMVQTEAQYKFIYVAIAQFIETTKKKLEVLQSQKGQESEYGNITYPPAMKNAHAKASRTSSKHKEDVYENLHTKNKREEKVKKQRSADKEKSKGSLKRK
SHP2, sequence (Q06124 whole entry, looked up): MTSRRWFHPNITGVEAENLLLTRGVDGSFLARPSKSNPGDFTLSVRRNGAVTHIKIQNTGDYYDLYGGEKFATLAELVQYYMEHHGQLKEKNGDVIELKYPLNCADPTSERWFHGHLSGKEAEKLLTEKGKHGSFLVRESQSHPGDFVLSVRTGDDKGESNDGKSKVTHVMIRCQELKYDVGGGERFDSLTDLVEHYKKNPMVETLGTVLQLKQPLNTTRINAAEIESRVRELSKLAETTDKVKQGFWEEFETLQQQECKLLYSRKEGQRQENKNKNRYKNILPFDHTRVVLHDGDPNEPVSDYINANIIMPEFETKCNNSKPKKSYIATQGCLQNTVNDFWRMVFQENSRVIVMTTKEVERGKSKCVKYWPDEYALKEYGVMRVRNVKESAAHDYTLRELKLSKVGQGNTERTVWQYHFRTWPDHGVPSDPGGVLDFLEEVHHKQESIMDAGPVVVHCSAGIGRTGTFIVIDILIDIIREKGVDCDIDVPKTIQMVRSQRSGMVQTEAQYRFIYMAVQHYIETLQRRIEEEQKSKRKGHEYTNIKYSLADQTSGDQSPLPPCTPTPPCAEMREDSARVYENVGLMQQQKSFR
PTPH1, sequence (P26045 whole entry, species assumed): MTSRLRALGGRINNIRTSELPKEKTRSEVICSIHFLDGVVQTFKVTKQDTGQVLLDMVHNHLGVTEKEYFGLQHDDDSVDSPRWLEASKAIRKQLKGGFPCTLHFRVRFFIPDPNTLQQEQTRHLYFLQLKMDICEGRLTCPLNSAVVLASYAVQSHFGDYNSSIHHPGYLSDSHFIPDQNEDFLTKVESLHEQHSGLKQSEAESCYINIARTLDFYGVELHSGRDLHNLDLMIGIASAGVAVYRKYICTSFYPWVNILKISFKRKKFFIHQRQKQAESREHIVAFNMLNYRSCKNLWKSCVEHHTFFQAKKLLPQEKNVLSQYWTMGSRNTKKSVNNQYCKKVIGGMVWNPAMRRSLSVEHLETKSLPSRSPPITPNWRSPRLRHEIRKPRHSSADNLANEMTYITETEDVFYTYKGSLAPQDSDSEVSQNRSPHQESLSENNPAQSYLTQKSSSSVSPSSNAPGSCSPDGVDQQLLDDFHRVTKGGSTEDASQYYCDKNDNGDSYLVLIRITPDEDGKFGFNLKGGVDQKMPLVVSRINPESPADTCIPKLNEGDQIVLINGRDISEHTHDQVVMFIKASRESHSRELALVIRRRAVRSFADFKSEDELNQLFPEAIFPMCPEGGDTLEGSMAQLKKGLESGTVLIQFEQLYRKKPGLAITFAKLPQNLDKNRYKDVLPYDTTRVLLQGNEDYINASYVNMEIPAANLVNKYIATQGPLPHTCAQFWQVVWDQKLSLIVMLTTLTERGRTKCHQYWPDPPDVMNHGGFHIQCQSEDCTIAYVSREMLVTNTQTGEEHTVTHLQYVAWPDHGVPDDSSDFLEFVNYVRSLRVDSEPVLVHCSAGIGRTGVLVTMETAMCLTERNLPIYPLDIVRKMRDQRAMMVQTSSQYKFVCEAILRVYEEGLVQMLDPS
PTPμ, sequence (P28827 21-1452): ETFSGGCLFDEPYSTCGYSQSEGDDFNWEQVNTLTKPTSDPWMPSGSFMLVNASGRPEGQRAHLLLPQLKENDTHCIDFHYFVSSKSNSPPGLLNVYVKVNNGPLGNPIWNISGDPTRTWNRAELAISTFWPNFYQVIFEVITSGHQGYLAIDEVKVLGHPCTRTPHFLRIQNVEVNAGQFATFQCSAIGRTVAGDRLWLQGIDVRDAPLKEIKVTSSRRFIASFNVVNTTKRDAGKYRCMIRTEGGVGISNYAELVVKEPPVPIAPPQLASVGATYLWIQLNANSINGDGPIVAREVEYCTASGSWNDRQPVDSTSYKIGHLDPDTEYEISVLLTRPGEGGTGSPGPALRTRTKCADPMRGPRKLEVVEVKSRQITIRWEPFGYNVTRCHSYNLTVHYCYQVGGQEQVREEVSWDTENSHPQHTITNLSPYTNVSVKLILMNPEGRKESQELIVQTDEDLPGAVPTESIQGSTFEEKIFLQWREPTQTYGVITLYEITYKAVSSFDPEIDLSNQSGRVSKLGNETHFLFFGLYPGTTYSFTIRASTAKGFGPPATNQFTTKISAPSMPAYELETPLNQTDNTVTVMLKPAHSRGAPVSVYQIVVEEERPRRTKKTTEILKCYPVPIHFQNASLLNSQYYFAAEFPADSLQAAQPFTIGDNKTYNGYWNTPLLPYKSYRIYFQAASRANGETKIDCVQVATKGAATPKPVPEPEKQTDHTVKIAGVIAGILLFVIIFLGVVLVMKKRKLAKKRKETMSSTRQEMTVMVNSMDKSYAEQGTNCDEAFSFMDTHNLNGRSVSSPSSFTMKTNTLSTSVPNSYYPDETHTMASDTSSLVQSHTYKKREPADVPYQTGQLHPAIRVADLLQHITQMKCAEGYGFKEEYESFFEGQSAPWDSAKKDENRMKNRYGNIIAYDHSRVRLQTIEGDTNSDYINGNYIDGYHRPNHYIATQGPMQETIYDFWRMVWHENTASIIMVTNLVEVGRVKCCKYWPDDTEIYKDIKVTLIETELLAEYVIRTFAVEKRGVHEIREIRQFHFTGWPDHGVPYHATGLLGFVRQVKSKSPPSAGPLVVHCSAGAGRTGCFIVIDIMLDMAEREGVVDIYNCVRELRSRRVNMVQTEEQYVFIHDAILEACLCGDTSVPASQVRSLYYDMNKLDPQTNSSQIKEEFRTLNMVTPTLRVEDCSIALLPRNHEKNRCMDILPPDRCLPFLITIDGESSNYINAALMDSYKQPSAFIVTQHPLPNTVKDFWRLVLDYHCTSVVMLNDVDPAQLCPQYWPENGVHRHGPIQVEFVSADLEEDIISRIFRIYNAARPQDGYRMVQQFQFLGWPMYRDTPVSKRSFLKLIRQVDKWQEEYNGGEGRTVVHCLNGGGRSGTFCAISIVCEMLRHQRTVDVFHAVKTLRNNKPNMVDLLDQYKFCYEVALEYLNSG
UBLCP1, sequence (Q8WVY7 whole entry, species assumed): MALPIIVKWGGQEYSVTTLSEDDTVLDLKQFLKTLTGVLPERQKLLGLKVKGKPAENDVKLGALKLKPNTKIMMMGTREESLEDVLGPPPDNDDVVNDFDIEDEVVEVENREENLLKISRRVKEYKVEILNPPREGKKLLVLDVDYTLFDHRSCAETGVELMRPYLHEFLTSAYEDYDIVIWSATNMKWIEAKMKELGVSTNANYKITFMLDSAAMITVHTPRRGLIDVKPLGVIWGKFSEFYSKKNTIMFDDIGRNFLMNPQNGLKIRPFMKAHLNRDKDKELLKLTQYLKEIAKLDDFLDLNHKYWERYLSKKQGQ
VHR, sequence (P51452 whole entry, species assumed): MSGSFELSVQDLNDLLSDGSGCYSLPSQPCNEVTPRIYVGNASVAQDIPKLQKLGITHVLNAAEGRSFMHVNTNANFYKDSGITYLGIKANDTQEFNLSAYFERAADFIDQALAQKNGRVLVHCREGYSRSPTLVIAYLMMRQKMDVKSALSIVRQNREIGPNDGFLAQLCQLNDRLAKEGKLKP
PTPε, sequence (P23469 20-700): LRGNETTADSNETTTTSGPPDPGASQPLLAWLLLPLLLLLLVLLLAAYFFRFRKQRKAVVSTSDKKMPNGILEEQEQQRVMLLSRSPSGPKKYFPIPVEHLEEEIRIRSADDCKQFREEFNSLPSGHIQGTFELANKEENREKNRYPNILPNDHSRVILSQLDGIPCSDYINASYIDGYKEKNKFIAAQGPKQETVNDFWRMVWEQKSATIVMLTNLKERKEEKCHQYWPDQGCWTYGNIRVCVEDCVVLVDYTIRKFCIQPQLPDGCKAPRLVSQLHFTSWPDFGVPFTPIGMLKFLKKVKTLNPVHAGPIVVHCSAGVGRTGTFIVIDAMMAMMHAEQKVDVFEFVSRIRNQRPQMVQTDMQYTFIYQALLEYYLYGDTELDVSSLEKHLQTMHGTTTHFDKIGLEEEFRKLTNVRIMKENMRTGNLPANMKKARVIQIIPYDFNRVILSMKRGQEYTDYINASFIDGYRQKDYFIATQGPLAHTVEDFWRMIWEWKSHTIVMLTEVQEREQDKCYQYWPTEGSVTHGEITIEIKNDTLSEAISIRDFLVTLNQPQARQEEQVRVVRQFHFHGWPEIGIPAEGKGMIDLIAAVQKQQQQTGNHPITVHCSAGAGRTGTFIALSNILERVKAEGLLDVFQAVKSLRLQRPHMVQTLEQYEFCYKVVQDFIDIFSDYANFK
Laforin, sequence (O95278 whole entry, species assumed): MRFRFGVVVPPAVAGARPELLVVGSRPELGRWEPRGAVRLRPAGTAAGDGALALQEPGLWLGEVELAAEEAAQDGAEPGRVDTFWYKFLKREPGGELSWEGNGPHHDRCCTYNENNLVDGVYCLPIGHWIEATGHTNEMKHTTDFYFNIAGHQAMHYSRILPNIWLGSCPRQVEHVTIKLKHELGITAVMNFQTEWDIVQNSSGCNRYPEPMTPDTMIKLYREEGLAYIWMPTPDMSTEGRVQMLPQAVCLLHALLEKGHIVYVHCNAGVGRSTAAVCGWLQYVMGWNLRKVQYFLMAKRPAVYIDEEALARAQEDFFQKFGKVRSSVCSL

Usually IC50 stands for the concentration at which inhibition is half-maximal. Consider `Cn1c(-c2cccc(NC(=O)C(=O)Nc3ccc(-c4ccsc4)cc3)c2)c(I)c2cc(C(=O)O)c(O)cc21` [11a-1, 6-hydroxy-3-iodo-1-methyl-2-(3-(2-oxo-2-((4-(thiophen-3-yl)phenyl)amino)acetamido)phenyl)-1H-indole-5-carboxylic acid], for which the “selectivity for SHP2 over a panel of 20 mammalian PTPs” value in [1] is “over 5 fold”. In addition, the IC50 came to 200 ± 20 nM in assay [1] (pNPP substrate, pH 7.0, 25° C.); 1070 ± 70 nM in assay [2]; 1440 ± 40 nM in [3] (pNPP at Km); 2300 ± 200 nM in [4]; 2400 ± 400 nM in assay [5]; 3.19 ± 0.09 µM in assay [6]. The IC50 in [7] is 3.3 ± 0.2 µM; in assay [8], 9.7 ± 0.5 µM; in assay [9], 12.2 ± 2 µM; in assay [10], more than 20 µM; in assay [11] it was 1090 ± 40 nM. Further, in assay [3], the “preference for SHP2 over SHP1” value worked out at 7 fold. Also, the “reduction of Erk1/2 phosphorylation” value in assay [12] (H1975 cells, 2 μM) came to 40%. For the same compound, the “effect on EGF-induced Erk1/2 phosphorylation” value in assay [12] (H1975 cells, dose-dependent) was “effectively reduced; also recorded: decreased”. The “ability to inhibit EGF-mediated Erk1/2 activation in SHP2 knocked down cells” value in [12] (SHP2 knocked down with siRNA) is listed as “blunted”. Besides, the “augmentation of Paxillin phosphorylation” value in assay [13] (2 μM) is given as 30%. Besides, the “effect on EGF induced Paxillin (Y118) phosphorylation” value in assay [13] (dose-dependent) was “dose-dependently increased”. Further, in [14] (3 μM, within 24 hours), the “growth of SKBR3 cells in Matrigel” value is “potently inhibited”. Also, the “ErbB2+ breast cancer cell growth in a 3D Matrigel environment” value in assay [14] (SKBR3, over 4 days, indicated concentrations) was “inhibited”. The “Erk1/2 and Akt phosphorylation in SKBR3 cells” value in [15] is on record as “concordantly inhibited”.
